{"source": "patent US20110263693A1", "about": "“CELASTROL, GEDUNIN, AND DERIVATIVES THEREOF AS HSP90 INHIBITORS” (DANA-FARBER CANCER INSTITUTE, INC., priority 2006, published 2011)", "key": {"HSP90-HOP interaction": {"tested_on": "HSP90-HOP interaction", "test": "HSP90 coimmunoprecipitation, HOP", "assay_type": "cell-based", "conditions": "SKBR-3 cells; celastrol 2.5 μM, 12 hr", "method": "Geldanamycin and other HSP90 inhibitors are known to inhibit p23 association with HSP90 (Felts et al., 2003). In contrast, HSP90-HOP interaction was unaltered by celastrol and other HSP90 inhibitors (FIG. 7F). Thus, celastrol inhibits the functional interactions of HSP90 and suppresses HSP90 client levels.\n(§1) SKBR-3 cells were treated with vehicle, celastrol (2.5 μM, 12 hr), and PU24FCI (20 μM, 24 hr) (Vilenchik et al., 2004). Cells were lysed in 20 mM Tris HCl (pH 7.4), 25 mM NaCl, 2 mM DDT, 20 mM Na2MoO4, 0.1% NP-40, and […]. Lysates were incubated for 2 hr at 4° C., rotating, and then centrifuged at 13,000×g for 10 min. Protein (500 μg) was incubated with H9010 anti-HSP90 antibody for 1 hr at 4° C., rotating. Protein G agarose (30 μl; Upstate) was added to each sample, and samples were then incubated for 1 hr at 4° C., rotating. The beads were washed five times with 1 ml lysis buffer. Bound proteins were isolated by boiling in sample buffer. The levels of HSP90 and coimmunoprecipitating proteins were analyzed by western blot."}, "Raf-1": {"tested_on": "Raf-1", "test": "Western blot of HSP90 client Raf-1 level", "assay_type": "cell-based", "conditions": "LNCaP, 1.25 μM, 24 hours"}, "hERG potassium channel": {"biological_target": "hERG potassium channel (Homo sapiens, UniProt Q12809)", "sequence (Q12809 whole entry)": "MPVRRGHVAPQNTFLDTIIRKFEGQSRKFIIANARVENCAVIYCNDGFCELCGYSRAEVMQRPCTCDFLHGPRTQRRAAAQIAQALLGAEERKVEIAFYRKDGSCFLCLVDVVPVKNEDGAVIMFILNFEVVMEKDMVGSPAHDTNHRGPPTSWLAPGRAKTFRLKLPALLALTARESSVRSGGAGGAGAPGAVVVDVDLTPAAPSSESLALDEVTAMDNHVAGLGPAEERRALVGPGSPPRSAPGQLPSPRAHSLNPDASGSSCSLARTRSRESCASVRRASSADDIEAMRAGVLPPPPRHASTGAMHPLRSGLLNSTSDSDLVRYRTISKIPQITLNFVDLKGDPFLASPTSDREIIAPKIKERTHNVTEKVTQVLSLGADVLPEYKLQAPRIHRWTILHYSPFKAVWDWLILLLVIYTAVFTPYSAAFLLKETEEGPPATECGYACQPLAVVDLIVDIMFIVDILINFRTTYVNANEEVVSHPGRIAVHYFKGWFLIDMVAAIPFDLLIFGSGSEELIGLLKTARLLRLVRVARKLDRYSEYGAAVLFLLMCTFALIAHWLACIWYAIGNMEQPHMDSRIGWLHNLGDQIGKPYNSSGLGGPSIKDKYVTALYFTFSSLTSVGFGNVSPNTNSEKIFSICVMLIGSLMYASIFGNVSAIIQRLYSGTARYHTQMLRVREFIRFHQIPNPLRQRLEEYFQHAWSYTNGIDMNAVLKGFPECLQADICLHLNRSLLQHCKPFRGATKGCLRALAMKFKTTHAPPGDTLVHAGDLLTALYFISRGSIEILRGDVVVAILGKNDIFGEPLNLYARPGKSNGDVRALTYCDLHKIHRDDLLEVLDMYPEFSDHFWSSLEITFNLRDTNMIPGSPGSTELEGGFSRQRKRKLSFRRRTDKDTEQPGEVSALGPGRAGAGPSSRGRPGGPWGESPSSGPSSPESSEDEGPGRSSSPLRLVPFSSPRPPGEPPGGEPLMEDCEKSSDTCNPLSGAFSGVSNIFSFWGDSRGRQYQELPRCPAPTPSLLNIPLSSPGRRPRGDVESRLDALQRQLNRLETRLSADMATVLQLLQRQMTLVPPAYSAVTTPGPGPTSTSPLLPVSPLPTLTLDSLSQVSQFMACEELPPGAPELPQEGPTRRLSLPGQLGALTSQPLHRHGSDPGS", "conditions": "by inhibiting hERG maturation (Sun et al., 2006); cited from earlier work"}, "[1]": {"tested_on": "mouse models of arthritis", "conditions": "purified celastrol, 1-3 mg/kg daily; cited from earlier work"}, "gedunin signature": {"tested_on": "gedunin signature", "test": "Connectivity Map query with the gedunin signature", "assay_type": "cell-based, human", "summary_of_the_method": "(§2)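 LNCaP cells received celastrol 1.25 μM or gedunin 20 μM for 6 h. Each signature was scored by Kolmogorov–Smirnov-based connectivity against 453 build01 profiles, mostly 6 h treatments of MCF7 cells.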"}, "[2]": {"tested_on": "HSP90 interaction with the cochaperone p23", "test": "HSP90 coimmunoprecipitation, p23", "assay_type": "cell-based", "conditions": "SKBR-3 cells; celastrol 2.5 μM, 12 hr", "method": "Geldanamycin and other HSP90 inhibitors are known to inhibit p23 association with HSP90 (Felts et al., 2003).\nas §1"}, "HSP70": {"tested_on": "HSP70", "conditions": "Westerheide et al., 2004; cited from earlier work"}, "celastrol signature": {"tested_on": "celastrol signature", "test": "Connectivity Map query with the celastrol signature", "assay_type": "cell-based, human", "summary_of_the_method": "as §2"}}}
{"smiles": "CC1=C(O)C(=O)C=C2C1=CC=C1[C@@]2(C)CC[C@@]2(C)[C@@H]3C[C@](C)(C(=O)O)CC[C@]3(C)CC[C@]12C", "note": "[celastrol]", "values": [{"measurement": "HSP90-HOP interaction (coimmunoprecipitation)", "setting": "HSP90-HOP interaction", "value": "unaltered"}, {"measurement": "level of Raf-1", "setting": "Raf-1", "value": "decreases the levels"}, {"measurement": "hERG potassium channel activity", "setting": "hERG potassium channel", "value": "suppress hERG potassium channel activity"}, {"measurement": "bioactivity in mouse models of arthritis", "setting": "[1]", "value": "significant bioactivity"}, {"measurement": "gedunin score (connectivity score)", "setting": "gedunin signature; enrichment of the gedunin signature (20 μM gedunin at 6 hours, LNCaP) in the compound's Connectivity Map profiles, 6 hr treatment", "value": 0.997}, {"measurement": "Connectivity Map rank of match for the gedunin signature", "setting": "gedunin signature; out of 164 compounds, signature from LNCaP 20 μM, 6 hr", "value": "top match"}, {"measurement": "HSP90 interaction with cochaperone p23 (coimmunoprecipitation)", "setting": "[2]", "value": "reduced HSP90 interaction with the cochaperone p23"}, {"measurement": "HSP70 levels", "setting": "HSP70", "value": "induce HSP70 levels"}, {"measurement": "celastrol score (connectivity score)", "setting": "celastrol signature; enrichment of the celastrol signature (1.25 μM celastrol at 6 h, LNCaP) in the compound's Connectivity Map profiles, 6 hr treatment", "value": 0.85}, {"measurement": "Connectivity Map rank of match for the celastrol signature", "setting": "celastrol signature; out of 164 compounds, signature from LNCaP 1.25 μM, 6 hr", "value": "fourth-ranked match"}]}
